Laboratory results as given in patent US9884832B2 (priority 2011, dated 2018).
Like-named read-outs stand apart in the source and are kept apart here.

Columns and labels:
[1] = target: AM2 S31N (serine→asparagine mutation at residue 31 in the M2 protein) (Influenza A virus, UniProt P0DOF5, S31N); type: cell-based, influenza virus A/Udorn/72
[2] = target: AM2 V27A (valine→alanine mutation at residue 27 in the M2 protein) (Influenza A virus, UniProt P0DOF5, V27A); type: cell-based, influenza virus A/Udorn/72

Compound	S31N OOcyte Inhibition at 100 uM (%) ([1]; pH 5.5)	V27A OOcyte Inhibition at 100 uM (%) ([2]; pH 5.5)	S31N OOcyte Inhibition at 100 uM (%) [1]	V27A OOcyte Inhibition at 100 uM (%) [2]
O=[N+]([O-])c1ccc(CNC23CC4CC(CC(C4)C2)C3)cc1 [Example 19, Adamantan-1-yl-(4-nitro-benzyl)-amine]	B (key: (A)=31-95%; (B)=0-30%)	B (key: (A)=31-95%; (B)=0-30%)	–	–
c1cc(-c2ccc(CNC34CC5CC(CC(C5)C3)C4)cc2)co1 [Example 42, N-(4-(Furan-3-yl)benzyl)adamantan-1-amine]	A (key: (A)=31-95%; (B)=0-30%)	B (key: (A)=31-95%; (B)=0-30%)	–	–
CC(C)(C)c1ccc(CNC23CC4CC(CC(C4)C2)C3)cc1 [Example 7a, N-(4-(tert-Butyl)benzyl)adamantan-1-amine methanesulfonate]	–	–	A (key: (A)=31-95%; (B)=0-30%)	B (key: (A)=31-95%; (B)=0-30%)
c1cc2cc(CNC34CC5CC(CC(C5)C3)C4)ccc2s1 [Example 41a, N-(benzo[b]thiophen-5-ylmethyl)adamantan-1-amine]	–	–	B (key: (A)=31-95%; (B)=0-30%)	A (key: (A)=31-95%; (B)=0-30%)
Oc1ccc(CNC23CC4CCC(CC(C4)C2)C3)c(O)c1 [Example 110, 4-(Tricyclo[4.3.1.13,8]undec-1-ylaminomethyl)-benzene-1,3-diol]	A (key: (A)=31-95%; (B)=0-30%)	A (key: (A)=31-95%; (B)=0-30%)	–	–
c1ccn2c(CNC34CC5CC(CC(C5)C3)C4)cnc2c1 [Example 203a, Adamantan-1-yl-imidazo[1,2-a]pyridin-3-ylmethyl-amine]	–	–	B (key: (A)=31-95%; (B)=0-30%)	B (key: (A)=31-95%; (B)=0-30%)
OC1CCN(C2C3CC4CC(C3)CC2C4)CC1 (stereo not drawn) [Example 104, 1-Adamantan-2-yl-piperidin-4-ol]	B (key: (A)=31-95%; (B)=0-30%)	B (key: (A)=31-95%; (B)=0-30%)	–	–
COc1ccc(-c2ccc(CNC34CC5CC(CC(C5)C3)C4)s2)cc1 [Example 113a, N-((5-(4-methoxyphenyl)thiophen-2-yl)methyl)adamantan-1-amine]	–	–	A (key: (A)=31-95%; (B)=0-30%)	B (key: (A)=31-95%; (B)=0-30%)
CC(NCc1ccc(O)cc1)C12CC3CC(CC(C3)C1)C2 (stereo not drawn) [Example 4, 4-[(1-Adamantan-1-yl-ethylamino)-methyl]-phenol]	B (key: (A)=31-95%; (B)=0-30%)	B (key: (A)=31-95%; (B)=0-30%)	–	–
c1ccc(CNC23CC4CC(CC(C4)C2)C3)nc1 [Example 72, Adamantan-1-yl-pyridin-2-ylmethyl-amine]	B (key: (A)=31-95%; (B)=0-30%)	B (key: (A)=31-95%; (B)=0-30%)	–	–
c1ccc2nc(CNC34CC5CC(CC(C5)C3)C4)ccc2c1 [Example 56a, Adamantan-1-yl-quinolin-2-ylmethyl-amine]	–	–	A (key: (A)=31-95%; (B)=0-30%)	B (key: (A)=31-95%; (B)=0-30%)
c1c(CNC2C3CC4CC(C3)CC2C4)nc2n1CCS2 (stereo not drawn) [Example 105, Adamantan-2-yl-(2,3-dihydro-imidazo[2,1-b]thiazol-6-ylmethyl)-amine]	B (key: (A)=31-95%; (B)=0-30%)	B (key: (A)=31-95%; (B)=0-30%)	–	–
CC(C)(C)OC(=O)Nc1ccc(CNC23CC4CC(CC(C4)C2)C3)cc1 [Example 12, [4-(Adamantan-1-ylaminomethyl)-phenyl]carbamic acid tert-butyl ester]	B (key: (A)=31-95%; (B)=0-30%)	B (key: (A)=31-95%; (B)=0-30%)	–	–
c1cc(-c2csc(CNC34CC5CC(CC(C5)C3)C4)c2)cs1 [Example 152a, N-([3,3′-bithiophen]-5-ylmethyl)adamantan-1-amine]	–	–	B (key: (A)=31-95%; (B)=0-30%)	A (key: (A)=31-95%; (B)=0-30%)
Cc1ccc(-c2ccc(CNC34CC5CC(CC(C5)C3)C4)s2)s1 [Example 141a, N-((5′-methyl-[2,2′-bithiophen]-5-yl)methyl)adamantan-1-amine]	–	–	A (key: (A)=31-95%; (B)=0-30%)	B (key: (A)=31-95%; (B)=0-30%)
c1cc2sc(CNC34CC5CC(CC(C5)C3)C4)cc2s1 [Example 81, Adamantan-1-yl-thieno[3,2-b]thiophen-2-ylmethyl-amine]	A (key: (A)=31-95%; (B)=0-30%)	B (key: (A)=31-95%; (B)=0-30%)	–	–
c1cc2cc(CNC34CC5CC(CC(C5)C3)C4)sc2o1 [Example 83, Adamantan-1-yl-thieno[2,3-b]furan-5-ylmethyl-amine]	A (key: (A)=31-95%; (B)=0-30%)	B (key: (A)=31-95%; (B)=0-30%)	–	–
Oc1cc(-c2cc3ccccc3o2)ccc1CNC12CC3CC(CC(C3)C1)C2 [Example 48a]	–	–	B (key: (A)=31-95%; (B)=0-30%)	B (key: (A)=31-95%; (B)=0-30%)

Compound	S31N OOcyte Inhibition at 100 uM (%) ([1]; pH 5.5)	V27A OOcyte Inhibition at 100 uM (%) ([2]; pH 5.5)	S31N OOcyte Inhibition at 100 uM (%) [1]	V27A OOcyte Inhibition at 100 uM (%) [2]
OC12CC3CC(C1)CC(NCc1ccc(-c4ccccc4)s1)(C3)C2 [Example 191a, 3-[(5-Phenyl-thiophen-2-ylmethyl)-amino]adamantan-1-ol]	–	–	A (key: (A)=31-95%; (B)=0-30%)	B (key: (A)=31-95%; (B)=0-30%)
c1ccc(-c2cc(CNC34CC5CC(CC(C5)C3)C4)no2)cc1 [Example 116a, N-((5-phenylisoxazol-3-yl)methyl)adamantan-1-amine]	–	–	A (key: (A)=31-95%; (B)=0-30%)	B (key: (A)=31-95%; (B)=0-30%)
CC(NC12CC3CC(CC(C3)C1)C2)c1ccc(I)s1 (stereo not drawn) [Example 82a, N-(1-(5-iodothiophen-2-yl)ethyl)adamantan-1-amine]	–	–	B (key: (A)=31-95%; (B)=0-30%)	A (key: (A)=31-95%; (B)=0-30%)
c1ccc2sc(CNC34CC5CC(CC(C5)C3)C4)cc2c1 [Example 88, Adamantan-1-yl-benzo[b]thiophen-2-ylmethyl-amine]	A (key: (A)=31-95%; (B)=0-30%)	B (key: (A)=31-95%; (B)=0-30%)	–	–
CC(C)(C)CC(C)(C)NCc1ccc(O)cc1O [Example 112, 4-[(1,1,3,3-Tetramethyl-butylamino)-methyl]-benzene-1,3-diol]	B (key: (A)=31-95%; (B)=0-30%)	A (key: (A)=31-95%; (B)=0-30%)	–	–
COc1ccc(CN(C)C23CC4CC(CC(C4)C2)C3)cc1 [Example 32, Adamantan-1-yl-(4-methoxy-benzyl)-methyl-amine]	B (key: (A)=31-95%; (B)=0-30%)	B (key: (A)=31-95%; (B)=0-30%)	–	–
CC(NC12CC3CC(CC(C3)C1)C2)c1ccc(C#N)s1 (stereo not drawn) [Example 92a, 5-(1-(adamantan-1-ylamino)ethyl)thiophene-2-carbonitrile]	–	–	B (key: (A)=31-95%; (B)=0-30%)	B (key: (A)=31-95%; (B)=0-30%)
COc1ccc(CNC23CC4CC(CC(C4)C2)C3)cc1 [Example 16, Adamantan-1-yl-(4-methoxy-benzyl)-amine]	A (key: (A)=31-95%; (B)=0-30%)	A (key: (A)=31-95%; (B)=0-30%)	–	–
c1nc2ccc(CNC34CC5CC(CC(C5)C3)C4)cc2[nH]1 [Example 94, Adamantan-1-yl-(3H-benzoimidazol-5-ylmethyl)-amine]	B (key: (A)=31-95%; (B)=0-30%)	B (key: (A)=31-95%; (B)=0-30%)	–	–
Cc1cc(CNC23CC4CC(CC(C4)C2)C3)ccc1O [Example 51, 4-(Adamantan-1-ylaminomethyl)-2-methyl-phenol]	B (key: (A)=31-95%; (B)=0-30%)	B (key: (A)=31-95%; (B)=0-30%)	–	–
COc1cccc(COc2ccc(CNC34CC5CC(CC(C5)C3)C4)cc2)c1 [Example 14a, Adamantan-1-yl-[4-(3-methoxy-benzyloxy)-benzyl]-amine]	–	–	A (key: (A)=31-95%; (B)=0-30%)	B (key: (A)=31-95%; (B)=0-30%)
c1csc(-c2ccc(CNC34CC5CC(CC(C5)C3)C4)s2)c1 [Example 78, N-([2,2′-Bithiophen]-5-ylmethyl)adamantan-1-amine]	A (key: (A)=31-95%; (B)=0-30%)	B (key: (A)=31-95%; (B)=0-30%)	–	–
Oc1ccc(/C=N/C23CC4CC(CC(C4)C2)C3)c(O)c1 [Example 7]	B (key: (A)=31-95%; (B)=0-30%)	A (key: (A)=31-95%; (B)=0-30%)	–	–
FC(F)(F)Oc1ccc(CNC23CC4CC(CC(C4)C2)C3)cc1 [Example 4a, Adamantan-1-yl-(4-trifluoromethoxy-benzyl)-amine]	–	–	B (key: (A)=31-95%; (B)=0-30%)	B (key: (A)=31-95%; (B)=0-30%)
O=C(Oc1ccc(CNC23CC4CC(CC(C4)C2)C3)cc1)c1cccs1 [Example 37, Thiophene-2-carboxylic acid 4-(adamantan-1-ylaminomethyl)-phenyl ester]	A (key: (A)=31-95%; (B)=0-30%)	B (key: (A)=31-95%; (B)=0-30%)	–	–
CC(=O)c1ccc(CNC23CC4CC(CC(C4)C2)C3)cc1 [Example 44a]	–	–	B (key: (A)=31-95%; (B)=0-30%)	B (key: (A)=31-95%; (B)=0-30%)
c1scc2[nH]c(CNC34CC5CC(CC(C5)C3)C4)nc12 [Example 171a, Adamantan-1-yl-(1H-thieno[3,4-d]imidazol-2-ylmethyl)-amine]	–	–	A (key: (A)=31-95%; (B)=0-30%)	B (key: (A)=31-95%; (B)=0-30%)
Oc1ccc(/C=N/C23CC4CC(CC(C4)C2)C3)cc1 [Example 6]	B (key: (A)=31-95%; (B)=0-30%)	B (key: (A)=31-95%; (B)=0-30%)	–	–
